Columns and labels:
WEE2 = WEE2 (Homo sapiens, UniProt P0C1S8); test: KINOMEscan; type: binding; settings: 1 μM
JNK1 = target: T1, JNK1 (Homo sapiens, UniProt P45983); test: KINOMEscan; type: binding; settings: 1 μM
T1 construct: purchased Eurofins DiscoverX (KINOMEscan)

IRAK4 = target: T2, IRAK4 (Homo sapiens, UniProt Q9NWZ3); test: KINOMEscan; type: binding; settings: 1 μM
T2 construct: purchased Eurofins DiscoverX (KINOMEscan)

CDC2L1 = target: T3, CDC2L1 (Homo sapiens, UniProt P21127); test: KINOMEscan; type: binding; settings: 1 μM
T3 construct: purchased Eurofins DiscoverX Corporation (KINOMEscan)

TXK = TXK (Homo sapiens, UniProt P42681); test: KINOMEscan; type: binding; settings: 1 μM
QSK = QSK (Homo sapiens, UniProt Q9Y2K2); test: KINOMEscan; type: binding; settings: 1 μM
PIKFYVE = PIKFYVE (Homo sapiens, UniProt Q9Y2I7); test: KINOMEscan; type: binding; settings: 1 μM
ABL1-nonphosphorylated = target: T4, ABL1-nonphosphorylated (Homo sapiens, UniProt P00519); test: KINOMEscan; type: binding; settings: 1 μM
T4 construct: purchased Eurofins DiscoverX Corporation

BMPR1A = BMPR1A (Homo sapiens, UniProt P36894); test: KINOMEscan; type: binding; settings: 1 μM
STK16 = STK16 (Homo sapiens, UniProt O75716); test: KINOMEscan; type: binding; settings: 1 μM
WNK2 = WNK2 (Homo sapiens, UniProt Q9Y3S1); test: KINOMEscan; type: binding; settings: 1 μM
MARK3 = target: T5, MARK3 (Homo sapiens, UniProt P27448); test: KINOMEscan; type: binding; settings: 1 μM
T5 construct: purchased Eurofins DiscoverX Corporation

EGFR(S752-I759del) = EGFR(S752-I759del) (Homo sapiens, UniProt P00533, DEL752-759); test: KINOMEscan; type: binding; settings: 1 μM
[1] = test system: EGFR phosphorylation (pY1068) in H3255 (LR) cells; test: Western blot; type: cell-based, human; settings: H3255, 6 h
Procedure: (§1) H1975, H3255, H3255GR and HCC827 lung adenocarcinoma cells (obtained from Dr. Pasi Jänne in Dana-Farber Cancer Institute, 2022) were cultured in RPMI 1640 media (Corning, 1004-CV) supplemented with 10% FBS (Tissue Culture Biologicals, 35-010-CV) and 1% penicillin-streptomycin (P/S, Corning, 30-002-CI). All cell lines were tested negative for Mycoplasma using Myco-Sniff-Rapid™ Mycoplasma Luciferase Detection Kit Plus PCR Primer Set (MP biomedicals, 0930504-CF) and were passaged and/or used for no longer than 4 weeks for all experiments H1975 and HCC-827 cells were seeded in 6-well plates with 400,000 cells per well and incubated overnight. H3255 and H3255GR cells were seeded in 12-well plates with 200,000 cells per well and were grown to confluency after 48 h. Culture medium was removed, cells washed with PBS, and lysed with lysis buffer containing 5 M NaCl, 1 M TRIS pH 8.0, 10% SDS, 10% Triton X-100 and a tablet of protease and phosphatase inhibitor. Protein lysate concentration was analyzed using Pierce BCA kit (ThermoFisher, 23225). Protein samples (10 µg) were resolved on hand-cast Criterion Tris-HCl protein gels. Primary antibodies used; phospho-EGFR (Tyr1068; #2234, 1:1,000), EGFR (#4267; 1:1,000), phospho-AKT (Ser473; #4060, 1:1,000), AKT (#9272, 1:1,000), phospho-ERK1/2 (Thr202/Tyr204; #4370, 1:1,000), and ERK1/2 (#4695, 1:1,000) antibodies; were purchased from Cell Signaling Technology. Secondary Goat anti-rabbit IgG starbright blue 700 (Biorad, 64484700) and Anti-tubulin hFAB Rhodamine Tubulin (Bio-Rad, 64512248). Western blots were visualized with the ChemiDoc MP imager (Bio-Rad) utilizing the Image Lab Touch Software (version 2.4.0.03). All Western blot images are representatives of at least 3 independent replicate experiments.

[2] = test system: EGFR phosphorylation (pY1068) in H3255GR (LRTM) cells; test: Western blot; type: cell-based, human; settings: 6 h
Procedure: as §1

[3] = test system: EGFR phosphorylation (pY1068) in HCC827 (exon19 delE746-A750) cells; test: Western blot; type: cell-based, human; settings: HCC827, 6 h
Procedure: as §1

FGFR3 = FGFR3 (Homo sapiens, UniProt P22607); test: KINOMEscan; type: binding; settings: 1 μM
TSSK1B = target: T6, TSSK1B (Homo sapiens, UniProt Q9BXA7); test: KINOMEscan; type: binding; settings: 1 μM
T6 construct: purchased Eurofins DiscoverX Corporation

468 kinases = test: KINOMEscan selectivity score; type: binding; settings: 1 μM
PIK3CA(E542K) = PIK3CA(E542K) (Homo sapiens, UniProt P42336, E542K); test: KINOMEscan; type: binding; settings: 1 μM
FGR = FGR (Homo sapiens, UniProt P09769); test: KINOMEscan; type: binding; settings: 1 μM
EPHB4 = EPHB4 (Homo sapiens, UniProt P54760); test: KINOMEscan; type: binding; settings: 1 μM
DCAMKL3 = target: T7, DCAMKL3 (Homo sapiens, UniProt Q9C098); test: KINOMEscan; type: binding; settings: 1 μM
T7 construct: purchased Eurofins DiscoverX Corporation

YANK1 = YANK1 (Homo sapiens, UniProt Q8WU08); test: KINOMEscan; type: binding; settings: 1 μM
DCAMKL2 = target: T8, DCAMKL2 (Homo sapiens, UniProt Q8N568); test: KINOMEscan; type: binding; settings: 1 μM
T8 construct: purchased Eurofins DiscoverX Corporation

PIK3CA(E545K) = PIK3CA(E545K) (Homo sapiens, UniProt P42336, E545K); test: KINOMEscan; type: binding; settings: 1 μM
PIK3CA(E545A) = PIK3CA(E545A) (Homo sapiens, UniProt P42336, E545A); test: KINOMEscan; type: binding; settings: 1 μM
CSNK1A1L = target: T9, CSNK1A1L (Homo sapiens, UniProt Q8N752); test: KINOMEscan; type: binding; settings: 1 μM
T9 construct: purchased Eurofins DiscoverX Corporation

PDGFRB = PDGFRB (Homo sapiens, UniProt P09619); test: KINOMEscan; type: binding; settings: 1 μM
NEK1 = target: T10, NEK1 (Homo sapiens, UniProt Q96PY6); test: KINOMEscan; type: binding; settings: 1 μM
T10 construct: purchased Eurofins DiscoverX Corporation

T7 sequence (Q9C098 whole entry): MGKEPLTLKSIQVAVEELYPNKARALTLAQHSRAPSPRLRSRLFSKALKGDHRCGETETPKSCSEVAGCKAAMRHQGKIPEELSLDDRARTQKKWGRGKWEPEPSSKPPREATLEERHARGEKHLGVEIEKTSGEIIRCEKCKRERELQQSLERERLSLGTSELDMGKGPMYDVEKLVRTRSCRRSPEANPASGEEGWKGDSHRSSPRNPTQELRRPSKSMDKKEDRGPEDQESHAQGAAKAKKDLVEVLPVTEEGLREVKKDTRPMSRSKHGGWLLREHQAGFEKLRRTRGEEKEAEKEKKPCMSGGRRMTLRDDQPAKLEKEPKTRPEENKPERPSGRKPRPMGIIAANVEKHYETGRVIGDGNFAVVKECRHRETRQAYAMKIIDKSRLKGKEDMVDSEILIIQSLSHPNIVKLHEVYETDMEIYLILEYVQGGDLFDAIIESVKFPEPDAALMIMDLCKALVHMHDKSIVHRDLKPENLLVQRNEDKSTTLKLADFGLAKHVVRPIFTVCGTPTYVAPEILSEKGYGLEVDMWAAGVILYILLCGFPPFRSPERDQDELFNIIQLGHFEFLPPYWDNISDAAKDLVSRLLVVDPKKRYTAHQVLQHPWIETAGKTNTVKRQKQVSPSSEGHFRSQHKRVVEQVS
T4 sequence (P00519 whole entry): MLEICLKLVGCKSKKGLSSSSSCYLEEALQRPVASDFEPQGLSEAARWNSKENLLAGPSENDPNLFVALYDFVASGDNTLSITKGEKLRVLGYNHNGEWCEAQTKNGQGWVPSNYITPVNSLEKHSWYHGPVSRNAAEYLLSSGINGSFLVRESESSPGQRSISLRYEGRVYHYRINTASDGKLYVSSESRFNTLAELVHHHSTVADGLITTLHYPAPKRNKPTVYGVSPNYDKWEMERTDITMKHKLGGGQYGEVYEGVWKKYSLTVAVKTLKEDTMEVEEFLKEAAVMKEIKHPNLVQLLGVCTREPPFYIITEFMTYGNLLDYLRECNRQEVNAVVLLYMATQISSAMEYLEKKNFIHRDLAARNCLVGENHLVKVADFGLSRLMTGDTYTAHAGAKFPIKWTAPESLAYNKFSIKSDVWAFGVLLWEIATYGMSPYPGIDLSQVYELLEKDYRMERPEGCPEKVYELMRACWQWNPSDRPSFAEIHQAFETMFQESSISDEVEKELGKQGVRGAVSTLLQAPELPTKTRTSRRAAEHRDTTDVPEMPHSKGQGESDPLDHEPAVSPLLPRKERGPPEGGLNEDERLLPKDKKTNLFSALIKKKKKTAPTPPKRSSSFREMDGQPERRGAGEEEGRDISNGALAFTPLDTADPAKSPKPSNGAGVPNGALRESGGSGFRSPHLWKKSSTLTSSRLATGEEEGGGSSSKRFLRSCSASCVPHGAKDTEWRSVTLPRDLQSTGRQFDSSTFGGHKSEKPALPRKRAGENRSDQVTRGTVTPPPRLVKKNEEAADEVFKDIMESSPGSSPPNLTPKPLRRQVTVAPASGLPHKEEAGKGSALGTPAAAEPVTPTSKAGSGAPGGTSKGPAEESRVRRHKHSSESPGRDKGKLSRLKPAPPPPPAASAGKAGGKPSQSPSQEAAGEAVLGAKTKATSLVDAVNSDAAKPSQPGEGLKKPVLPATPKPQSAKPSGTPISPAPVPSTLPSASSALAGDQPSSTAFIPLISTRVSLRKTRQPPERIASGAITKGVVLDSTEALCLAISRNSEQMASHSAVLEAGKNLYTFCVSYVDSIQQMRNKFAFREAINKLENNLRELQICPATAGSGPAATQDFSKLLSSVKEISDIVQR
TXK, sequence (P42681 whole entry): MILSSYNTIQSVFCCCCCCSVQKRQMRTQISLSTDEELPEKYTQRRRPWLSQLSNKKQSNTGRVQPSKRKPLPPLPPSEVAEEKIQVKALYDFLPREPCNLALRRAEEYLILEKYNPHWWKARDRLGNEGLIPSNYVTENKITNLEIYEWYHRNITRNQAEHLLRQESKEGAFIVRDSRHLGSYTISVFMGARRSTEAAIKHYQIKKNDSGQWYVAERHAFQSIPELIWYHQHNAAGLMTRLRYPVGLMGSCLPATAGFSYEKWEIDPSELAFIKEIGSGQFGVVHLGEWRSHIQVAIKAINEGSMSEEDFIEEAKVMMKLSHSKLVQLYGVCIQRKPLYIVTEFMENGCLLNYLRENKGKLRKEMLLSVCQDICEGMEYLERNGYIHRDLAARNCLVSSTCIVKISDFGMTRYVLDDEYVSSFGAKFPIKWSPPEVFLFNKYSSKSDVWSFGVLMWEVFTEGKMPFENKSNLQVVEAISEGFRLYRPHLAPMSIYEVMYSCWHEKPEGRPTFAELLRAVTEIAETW
BMPR1A, sequence (P36894 24-532): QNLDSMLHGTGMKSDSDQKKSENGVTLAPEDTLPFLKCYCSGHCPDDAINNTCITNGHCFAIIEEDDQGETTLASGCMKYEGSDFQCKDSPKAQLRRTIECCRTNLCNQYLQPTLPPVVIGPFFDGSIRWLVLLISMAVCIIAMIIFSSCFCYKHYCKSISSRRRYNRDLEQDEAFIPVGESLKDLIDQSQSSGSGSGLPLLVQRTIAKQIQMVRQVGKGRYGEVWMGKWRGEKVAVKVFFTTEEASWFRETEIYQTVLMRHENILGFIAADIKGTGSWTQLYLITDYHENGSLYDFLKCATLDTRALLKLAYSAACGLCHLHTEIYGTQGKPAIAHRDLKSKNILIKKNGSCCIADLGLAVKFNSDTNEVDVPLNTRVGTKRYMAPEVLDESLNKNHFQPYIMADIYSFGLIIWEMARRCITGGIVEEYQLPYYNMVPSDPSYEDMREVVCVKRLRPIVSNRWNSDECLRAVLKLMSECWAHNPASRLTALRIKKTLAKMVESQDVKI
EPHB4, sequence (P54760 16-987): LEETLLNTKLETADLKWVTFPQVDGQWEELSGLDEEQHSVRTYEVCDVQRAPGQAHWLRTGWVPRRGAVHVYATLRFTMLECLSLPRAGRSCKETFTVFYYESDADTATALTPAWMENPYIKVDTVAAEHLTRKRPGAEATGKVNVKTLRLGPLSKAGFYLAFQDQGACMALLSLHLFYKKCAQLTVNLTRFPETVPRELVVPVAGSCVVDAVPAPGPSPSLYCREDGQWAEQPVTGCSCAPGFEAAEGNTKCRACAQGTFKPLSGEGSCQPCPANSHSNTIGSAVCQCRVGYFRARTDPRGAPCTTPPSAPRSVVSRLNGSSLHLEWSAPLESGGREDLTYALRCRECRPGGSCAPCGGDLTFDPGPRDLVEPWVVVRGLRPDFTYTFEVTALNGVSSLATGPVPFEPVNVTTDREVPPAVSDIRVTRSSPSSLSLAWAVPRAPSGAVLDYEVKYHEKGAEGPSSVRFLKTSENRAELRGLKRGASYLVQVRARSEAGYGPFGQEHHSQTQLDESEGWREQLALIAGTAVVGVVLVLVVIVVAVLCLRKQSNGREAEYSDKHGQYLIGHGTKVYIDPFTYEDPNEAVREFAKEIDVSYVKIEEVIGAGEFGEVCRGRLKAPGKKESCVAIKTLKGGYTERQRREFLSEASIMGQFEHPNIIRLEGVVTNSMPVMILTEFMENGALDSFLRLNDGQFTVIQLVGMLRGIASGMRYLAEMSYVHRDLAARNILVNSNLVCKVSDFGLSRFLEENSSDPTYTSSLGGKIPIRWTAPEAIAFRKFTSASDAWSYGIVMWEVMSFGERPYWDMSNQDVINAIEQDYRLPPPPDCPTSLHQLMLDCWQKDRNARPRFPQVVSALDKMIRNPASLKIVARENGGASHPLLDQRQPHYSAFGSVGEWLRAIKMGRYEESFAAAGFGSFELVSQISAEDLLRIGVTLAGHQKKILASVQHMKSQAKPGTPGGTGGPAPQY
WEE2, sequence (P0C1S8 whole entry): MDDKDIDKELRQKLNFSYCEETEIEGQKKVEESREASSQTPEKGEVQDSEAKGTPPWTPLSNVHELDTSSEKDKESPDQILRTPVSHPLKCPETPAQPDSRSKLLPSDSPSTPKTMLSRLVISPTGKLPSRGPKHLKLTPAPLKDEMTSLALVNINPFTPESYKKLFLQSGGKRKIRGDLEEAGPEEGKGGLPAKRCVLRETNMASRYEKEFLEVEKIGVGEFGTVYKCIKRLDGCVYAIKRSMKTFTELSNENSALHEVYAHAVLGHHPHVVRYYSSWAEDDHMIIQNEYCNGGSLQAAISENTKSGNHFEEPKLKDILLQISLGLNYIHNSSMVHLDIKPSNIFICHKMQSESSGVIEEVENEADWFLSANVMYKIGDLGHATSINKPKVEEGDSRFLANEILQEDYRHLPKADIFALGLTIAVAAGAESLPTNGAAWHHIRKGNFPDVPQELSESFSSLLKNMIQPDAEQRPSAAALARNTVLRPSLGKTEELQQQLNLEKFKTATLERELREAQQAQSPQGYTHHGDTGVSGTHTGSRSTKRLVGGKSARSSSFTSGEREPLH
T2 sequence (Q9NWZ3 whole entry): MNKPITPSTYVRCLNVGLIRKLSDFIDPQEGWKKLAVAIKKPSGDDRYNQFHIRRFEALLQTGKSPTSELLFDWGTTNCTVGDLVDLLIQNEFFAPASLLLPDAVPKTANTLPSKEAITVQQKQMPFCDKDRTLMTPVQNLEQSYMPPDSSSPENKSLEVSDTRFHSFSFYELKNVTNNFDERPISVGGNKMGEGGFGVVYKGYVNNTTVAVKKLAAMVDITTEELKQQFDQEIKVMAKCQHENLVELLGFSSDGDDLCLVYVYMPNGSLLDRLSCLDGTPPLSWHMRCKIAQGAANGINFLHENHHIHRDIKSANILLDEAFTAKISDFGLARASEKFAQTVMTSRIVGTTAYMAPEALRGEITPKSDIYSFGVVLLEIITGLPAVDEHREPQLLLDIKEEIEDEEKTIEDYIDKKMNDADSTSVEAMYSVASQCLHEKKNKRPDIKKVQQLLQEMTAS

Structure (SMILES): C=CC(=O)Nc1ccc(OC)c(Nc2cc(-c3[nH]c(CC)nc3-c3cccc(NC(=O)c4cccc5c4NC(=O)c4ccccc4N5)c3)ccn2)c1 [Compound 4]
- POC (WEE2): 98% of control
- POC (JNK1): 85% of control
- POC (IRAK4): 43% of control
- POC (CDC2L1): 100% of control
- POC (TXK): 42% of control
- POC (QSK): 100% of control
- POC (PIKFYVE): 94% of control
- POC (ABL1-nonphosphorylated): 100% of control
- POC (BMPR1A): 85% of control
- POC (STK16): 100% of control
- POC (WNK2): 62% of control
- POC (MARK3): 100% of control
- POC (EGFR(S752-I759del)): 6% of control
- suppression of EGFR pY1068 phosphorylation [1]: analogous suppression of EGFR pY1068 phosphorylation
- suppression of EGFR pY1068 phosphorylation [2]: analogous suppression of EGFR pY1068 phosphorylation
- suppression of EGFR pY1068 phosphorylation [3]: analogous suppression of EGFR pY1068 phosphorylation
- POC (FGFR3): 94% of control
- POC (TSSK1B): 95% of control
- selectivity score S(35) (468 kinases): 0.084
- POC (PIK3CA(E542K)): 100% of control
- POC (FGR): 19% of control
- POC (EPHB4): 100% of control
- POC (DCAMKL3): 86% of control
- POC (YANK1): 84% of control
- POC (DCAMKL2): 100% of control
- POC (PIK3CA(E545K)): 100% of control
- POC (PIK3CA(E545A)): 100% of control
- POC (CSNK1A1L): 91% of control
- POC (PDGFRB): 100% of control
- POC (NEK1): 90% of control
